Measured values published in patent US11939303B2, “Sulfamate derivatives of 4-(1-phenyl-1H-[1,2,3]triazol-4-yl)-phenol, derivatives of 4-(1-phenyl-1H-[1,2,3]triazol-4-yl)-phenol, their medical use and the method of obtaining 4-(1-phenyl-1H-[1,2,3]triazol-4-yl)-phenyl sulfamate derivatives” (POLITECHNIKA GDANSKA, priority 2018, dated 2024).

biological target: T1, STS steroid sulfatase enzyme isolated from a human placenta (Homo sapiens, UniProt P08842); assay: STS steroid sulfatase enzymatic assay with nitrophenyl sulfate (NPS); format: biochemical; details: NPS substrate, pH 7.25, 60 minutes, p-nitrophenol at 405 nm, read-out: IC50 (ability to inhibit steroid sulfatase activity)
T1 construct: human placenta was stripped from membranes and homogenized in ice-cold Tris-HCl buffer pH 7.4; from tissue; host or cells: human placenta
T1 sequence (P08842 22-583): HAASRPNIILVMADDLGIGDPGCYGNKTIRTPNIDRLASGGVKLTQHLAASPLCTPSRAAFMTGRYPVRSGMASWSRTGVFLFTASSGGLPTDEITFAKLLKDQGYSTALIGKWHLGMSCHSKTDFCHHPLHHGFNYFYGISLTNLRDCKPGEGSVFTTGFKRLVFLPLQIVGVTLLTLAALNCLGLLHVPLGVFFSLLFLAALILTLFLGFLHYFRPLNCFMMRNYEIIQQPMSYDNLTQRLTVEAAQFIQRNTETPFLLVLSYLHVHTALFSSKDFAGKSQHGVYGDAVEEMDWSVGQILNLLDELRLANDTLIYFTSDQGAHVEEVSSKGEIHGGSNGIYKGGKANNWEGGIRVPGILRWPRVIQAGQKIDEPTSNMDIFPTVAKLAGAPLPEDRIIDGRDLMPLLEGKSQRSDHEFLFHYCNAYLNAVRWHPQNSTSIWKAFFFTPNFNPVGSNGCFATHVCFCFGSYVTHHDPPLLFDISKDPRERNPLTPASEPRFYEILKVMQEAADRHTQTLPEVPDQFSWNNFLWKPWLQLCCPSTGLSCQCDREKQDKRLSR
Experimental: The medical and biological activity of the compounds defined the general formula 1, for use as active compounds—medicament—drugs and/or as STS steroid sulfatase inhibitors, diagnostic agent and biological use were evaluated using the STS steroid sulfatase enzyme isolated from a human placenta according to the following procedure: • human placenta was stripped from membranes and homogenized in ice-cold Tris-HCl buffer pH 7.4 containing 0.1% Triton X-100 and 0.02% NaN3. • the homogenate was alternately frozen and thawed a few times and then centrifuged at 100000 g for 60 min, • the supernatant was removed and the same procedure from homogenization to centrifugation was carried out 5 times, • finally, the enzyme was purified by three-step chromatography using columns: DEAE-cellulose, Con A-Sepharose and Bio-Gel A-1.5 and appropriate buffers. All steps were carried out at 4° C. The biological, diagnostics and medical activity of STS inhibitors, for the compounds defined by the general formula 1, were evaluated by analyzing the progress of the enzymatic reaction using nitrophenyl sulfate (NPS). The final volume of the reaction mixture was 120 μL (pH=7.25) and contained 0.8 μmol NPS, 40 μmol Tris HCl and the appropriate amount of enzyme. After 60 minutes of reaction time, 0.5 mL of 1M NaOH was added to the reaction mixture. Released p nitrophenol was determined using a spectrophotometer at 405 nm. In the final step, the IC50 parameter values (characterizing the ability of obtained compounds to inhibit steroid sulfatase activity) were determined. […] Therefore, the compounds of the general formula 1 have biological, medical and diagnostic activity, and have medical applications for use as a medicament a well as in diagnostics for use as a diagnostic agent. It has been confirmed that the new compounds with general formula 1, as one of the possible mechanisms of medical and biological action, show a strong STS inhibitory activity at low micromolar or nanomolar concentrations, which is sufficient for the compounds to act as drugs classified as steroid sulfatase inhibitors or as compounds for use as steroid sulfatase inhibitors in diagnostic tests, in vitro clinical trials and its use in biological sciences. In particular, the compounds of the general formula 1 are for use as medicaments—useful as drugs in cancer therapy and in particular in the therapy of hormone-dependent cancers of animals, in particular mammals, including humans.

SMILES | IC50 [nM]
NS(=O)(=O)Oc1ccc(-c2cn(-c3cc(C(F)(F)F)cc(C(F)(F)F)c3)nn2)cc1 [4-[1-(3,5-Bis-trifluoromethyl-phenyl)-1H-[1,2,3]triazol-4-yl]-phenyl sulfamate] | 821
NS(=O)(=O)Oc1ccc(-c2cn(-c3cc(F)cc(F)c3)nn2)cc1 [4-[1-(3,5-difluoro-phenyl)-1H-[1,2,3]-triazol-4-yl]-phenyl sulfamate] | 36
NS(=O)(=O)Oc1ccc(-c2cn(-c3cccc(C(F)(F)F)c3)nn2)cc1 [4-[1-(3-trifluoromethyl-phenyl)-1H-[1,2,3]-triazol-4-yl]-phenyl sulfamate] | 180
NS(=O)(=O)Oc1ccc(-c2cn(-c3ccc(OC(F)(F)F)cc3)nn2)cc1 [4-[1-(4-trifluoromethoxy-phenyl)-1H-[1,2,3]-triazol-4-yl]-phenyl sulfamate] | 240
